Assay results: patent US8674136B2, “Aromatic butan-2-ol compounds and preparation and uses thereof” (Institute of Pharmacology and Toxicology Academy of …, priority 2010, dated 2014)
In brackets after ≈: the same amount, converted by molar mass.

Tested on: Standard Strain H37Rv of mycobacterium tuberculosis
Assay: MIC against standard strain H37Rv by Microplate Alamar Blue Assay (MABA)
Format: cell-based
Conditions: M. tuberculosis H37Rv, 7H9 medium, 37° C.

SMILES | MIC
COc1cc2ccc(Br)cc2cc1C(c1ccc(Cl)cc1)C(O)(CCN(C)C)c1cccc2ccccc12 (single isomer, unassigned) [Compound 3, 1-(4-chlorophenyl)-2-(1-naphthyl)-1-[2-(7-bromo-3-methoxy)naphthyl]-4-(N,N-dimethylamino)-butan-2-ol] | 2.883 µg/mL (≈ 4.89 µM)
COc1cc2ccccc2cc1C(c1ccc(Cl)cc1)C(O)(CCN(C)C)c1cccc2ccccc12 (single isomer, unassigned) [Compound 5, 1-(4-chlorophenyl)-2-(1-naphthyl)-1-[2-(3-methoxy)naphthyl]-4-(N,N-dimethylamino)-butan-2-ol] | 3.052 µg/mL (≈ 5.98 µM)
COc1cc2ccccc2cc1C(c1ccc(Cl)cc1)C(O)(CCN(C)C)c1cccc2ccccc12 (single isomer, unassigned) [Compound 6, 1-(4-chlorophenyl)-2-(1-naphthyl)-1-[2-(3-methoxy)naphthyl]-4-(N,N-dimethylamino)-butan-2-ol] | 1.454 µg/mL (≈ 2.85 µM)
COc1cc2ccccc2cc1C(c1ccccc1)C(O)(CCN(C)C)c1cccc2ccccc12 (stereo not shown) [Compound 2, 1-phenyl-2-(1-naphthyl)-1-[2-(3-methoxy)-naphthyl]-4-(N,N-dimethylamino)-butan-2-ol] | 3.178 µg/mL (≈ 6.68 µM)
COc1cc2ccc(Br)cc2cc1C(c1ccc(Cl)cc1)C(O)(CCN(C)C)c1ccc(Br)cc1 (stereo not shown) [Compound 8, 1-(4-chlorophenyl)-2-(4-bromophenyl)-1-[2-(7-bromo-3-methoxy)naphthyl]-4-(N,N-dimethylamino)-butan-2-ol] | 0.956 µg/mL (≈ 1.55 µM)
COc1cc2ccc(Br)cc2cc1C(c1ccccc1)C(O)(CCN(C)C)c1ccc(Br)cc1 (stereo not shown) [Compound 9, 1-phenyl-2-(4-bromophenyl)-1-[2-(7-bromo-3-methoxy)naphthyl]-4-(N,N-dimethylamino)-butan-2-ol] | 0.118 µg/mL (≈ 0.202 µM)
COc1cc2ccc(Br)cc2cc1C(c1ccccc1)C(O)(CCN(C)C)c1ccc(Br)cc1 (stereo not shown) [Compound 10, 1-phenyl-2-(4-bromophenyl)-1-[2-(7-bromo-3-methoxy)naphthyl]-4-(N,N-dimethylamino)-butan-2-ol] | 2.000 µg/mL (≈ 3.43 µM)
COc1cc2ccc(Br)cc2cc1C(c1ccccc1)C(O)(CCN(C)C)c1cccc(Br)c1 (stereo not shown) [Compound 11, 1-phenyl-2-(3-bromophenyl)-1-[2-(7-bromo-3-methoxy)naphthyl]-4-(N,N-dimethylamino)-butan-2-ol] | 0.103 µg/mL (≈ 0.177 µM)
COc1cc2ccc(Br)cc2cc1C(c1ccccc1)C(O)(CCN(C)C)c1cccc(Br)c1 (stereo not shown) [Compound 12, 1-phenyl-2-(3-bromophenyl)-1-[2-(7-bromo-3-methoxy)naphthyl]-4-(N,N-dimethylamino)-butan-2-ol] | 1.000 µg/mL (≈ 1.71 µM)
COc1cc2ccc(Br)cc2cc1C(c1ccc(Cl)cc1)C(O)(CCN(C)C)c1cccc(Br)c1 (stereo not shown) [Compound 15, 1-(4-chlorophenyl)-2-(3-bromophenyl)-1-[2-(7-bromo-3-methoxy)naphthyl]-4-(N,N-dimethylamino)-butan-2-ol] | 2.166 µg/mL (≈ 3.51 µM)
COc1cc2ccc(Br)cc2cc1C(c1ccc(Cl)cc1)C(O)(CCN(C)C)c1ccccc1 (stereo not shown) [Compound 17, 1-(4-chlorophenyl)-2-phenyl-1-[2-(7-bromo-3-methoxy)naphthyl]-4-(N,N-dimethylamino)-butan-2-ol] | 2.000 µg/mL (≈ 3.71 µM)
COc1cc2ccc(Br)cc2cc1C(c1ccc(Cl)cc1)C(O)(CCN(C)C)c1ccccc1 (stereo not shown) [Compound 18, 1-(4-chlorophenyl)-2-phenyl-1-[2-(7-bromo-3-methoxy)naphthyl]-4-(N,N-dimethylamino)-butan-2-ol] | 0.109 µg/mL (≈ 0.202 µM)
COc1cc2ccc(Br)cc2cc1C(c1ccccc1)C(O)(CCN(C)C)c1ccccc1 (stereo not shown) [Compound 19, 1,2-diphenyl-1-[2-(7-bromo-3-methoxy)naphthyl]-4-(N,N-dimethylamino)-butan-2-ol] | 0.206 µg/mL (≈ 0.408 µM)
COc1cc2ccc(Br)cc2cc1C(c1ccccc1)C(O)(CCN(C)C)c1ccccc1 (stereo not shown) [Compound 20, 1,2-diphenyl-1-[2-(7-bromo-3-methoxy)naphthyl]-4-(N,N-dimethylamino)-butan-2-ol] | 2.000 µg/mL (≈ 3.96 µM)
COc1cc2ccc(Br)cc2cc1C(c1ccc(Cl)cc1)C(O)(CCN(C)C)c1ccccc1Br (stereo not shown) [Compound 21, 1-(4-chlorophenyl)-2-(2-bromophenyl)-1-[2-(7-bromo-3-methoxy)naphthyl]-4-(N,N-dimethylamino)-butan-2-ol] | 2.000 µg/mL (≈ 3.24 µM)
COc1cc2ccc(Br)cc2cc1C(c1ccc(Cl)cc1)C(O)(CCN(C)C)c1ccccc1Br (stereo not shown) [Compound 22, 1-(4-chlorophenyl)-2-(2-bromophenyl)-1-[2-(7-bromo-3-methoxy)naphthyl]-4-(N,N-dimethylamino)-butan-2-ol] | 0.111 µg/mL (≈ 0.18 µM)
COc1cc2ccc(Br)cc2cc1C(c1ccccc1)C(O)(CCN(C)C)c1ccccc1Br (stereo not shown) [Compound 23, 1-phenyl-2-(2-bromophenyl)-1-[2-(7-bromo-3-methoxy)naphthyl]-4-(N,N-dimethylamino)-butan-2-ol] | >32 µg/mL
COc1cc2ccc(Br)cc2cc1C(c1ccccc1)C(O)(CCN(C)C)c1ccccc1Br (stereo not shown) [Compound 24, 1-phenyl-2-(2-bromophenyl)-1-[2-(7-bromo-3-methoxy)naphthyl]-4-(N,N-dimethylamino)-butan-2-ol] | 0.224 µg/mL (≈ 0.384 µM)
COc1cc2ccc(Br)cc2cc1C(c1ccccc1)C(O)(CCN(C)C)c1cccc2ccccc12 (stereo not shown) [Compound 26, 1-phenyl-2-(1-naphthyl)-1-[2-(7-bromo-3-methoxy)naphthyl]-4-(N,N-dimethylamino)-butan-2-ol] | 1.977 µg/mL (≈ 3.57 µM)
COc1cc2ccc(Br)cc2cc1C(c1ccc(C)cc1)C(O)(CCN(C)C)c1cccc2ccccc12 (stereo not shown) [Compound 29, 1-(4-methylphenyl)-2-(1-naphthyl)-1-[2-(7-bromo-3-methoxy)naphthyl]-4-(N,N-dimethylamino)-butan-2-ol] | 0.222 µg/mL (≈ 0.39 µM)
COc1c(C(c2ccccc2)C(O)(CCN(C)C)c2cccc3ccccc23)cc2cc(Br)ccc2c1Br (stereo not shown) [Compound 31, 1-phenyl-2-(1-naphthyl)-1-[2-(4,7-dibromo-3-methoxy)naphthyl]-4-(N,N-dimethylamino)-butan-2-ol] | 0.124 µg/mL (≈ 0.196 µM)
COc1c(C(c2ccccc2)C(O)(CCN(C)C)c2cccc3ccccc23)cc2cc(Br)ccc2c1Br (stereo not shown) [Compound 32, 1-phenyl-2-(1-naphthyl)-1-[2-(4,7-dibromo-3-methoxy)naphthyl]-4-(N,N-dimethylamino)-butan-2-ol] | 1.000 µg/mL (≈ 1.58 µM)

Same assay, conditions: Mycobacterium tuberculosis, H37RV, M. tuberculosis H37Rv, 7H9 medium, 37° C., read-out: MIC

SMILES | MIC
COc1cc2ccccc2cc1C(c1ccccc1)C(O)(CCN(C)C)c1cccc2ccccc12 (stereo not shown) [Compound 1, 1-phenyl-2-(1-naphthyl)-1-[2-(3-methoxy)-naphthyl]-4-(N,N-dimethylamino)-butan-2-ol] | 2.05 µg/mL (≈ 4.3 µM)
COc1cc2ccc(Br)cc2cc1C(c1ccc(Cl)cc1)C(O)(CCN(C)C)c1ccc(Br)cc1 (stereo not shown) [Compound 7, 1-(4-chlorophenyl)-2-(4-bromophenyl)-1-[2-(7-bromo-3-methoxy)naphthyl]-4-(N,N-dimethylamino)-butan-2-ol] | 1 µg/mL (≈ 1.62 µM)
COc1cc2ccccc2cc1C(c1ccc(Cl)cc1)C(O)(CCN(C)C)c1ccc(F)cc1F (stereo not shown) [Compound 13, 1-(4-chlorophenyl)-2-(2,4-difluorophenyl)-1-[2-(3-methoxy)naphthyl]-4-(N,N-dimethylamino)-butan-2-ol] | 1 µg/mL (≈ 2.02 µM)
